{"source": "paper PMC4620744", "about": "(Molecular cell, 2015)", "key": {"full-length H2A-H2B": {"molecular_target": "full-length H2A-H2B (Saccharomyces cerevisiae, UniProt P02293+P04911)", "sequence (P04911 2-132 limits assumed)": "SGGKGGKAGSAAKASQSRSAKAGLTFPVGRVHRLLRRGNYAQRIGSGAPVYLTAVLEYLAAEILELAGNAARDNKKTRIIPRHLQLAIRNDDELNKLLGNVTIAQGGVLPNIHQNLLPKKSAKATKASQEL", "sequence (P02293 2-131 limits assumed)": "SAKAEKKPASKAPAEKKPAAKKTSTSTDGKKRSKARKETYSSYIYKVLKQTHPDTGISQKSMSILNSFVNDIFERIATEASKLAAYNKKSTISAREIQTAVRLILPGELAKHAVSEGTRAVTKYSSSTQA", "experiment": "ITC binding to full-length H2A-H2B"}, "H2A-H2B M62E [1]": {"test_system": "H2A-H2B M62E", "experiment": "EMSA binding of full-length FACT to H2A-H2B M62E", "set-up": "species or system Saccharomyces cerevisiae", "conditions": "not shown"}, "H2A.Z-H2B": {"test_system": "H2A.Z-H2B", "experiment": "EMSA of full-length FACT with H2A.Z-H2B", "type": "binding, Saccharomyces cerevisiae"}, "H2A-H2B M62E [2]": {"test_system": "H2A-H2B M62E", "experiment": "ITC binding of full-length FACT to H2A-H2B M62E", "set-up": "species or system Saccharomyces cerevisiae"}, "H2A R78E H2A-H2B^30-130": {"test_system": "H2A R78E H2A-H2B^30-130", "experiment": "ITC binding to H2A-H2B^30-130 bearing H2A R78E", "set-up": "species or system Saccharomyces cerevisiae"}, "H2A R78A H2A-H2B^30-130": {"test_system": "H2A R78A H2A-H2B^30-130", "experiment": "ITC binding to H2A-H2B^30-130 bearing H2A R78A", "set-up": "species or system Saccharomyces cerevisiae"}, "H2A-H2B^30-130 H2B M62E": {"test_system": "H2A-H2B^30-130 H2B M62E", "experiment": "ITC binding to H2A-H2B^30-130 bearing H2B M62E", "set-up": "species or system Saccharomyces cerevisiae"}, "[3]": {"test_system": "H2A-H2B^30-130 bearing H2B Y45A", "experiment": "ITC binding to H2A-H2B^30-130 bearing H2B Y45A", "set-up": "species or system Saccharomyces cerevisiae"}, "[4]": {"test_system": "H2A-H2B^30-130 bearing H2B M62A", "experiment": "ITC binding to H2A-H2B^30-130 bearing H2B M62A", "set-up": "species or system Saccharomyces cerevisiae"}}, "note": "Where no end group is shown, it is not given here.", "data": [{"substance": "Spt16-C^958-999: Spt16 residues 958-999 (DDEASDESEEEVSEYEASEDDVSDESAFSEDEEGSEVDDDIS)", "values": [{"measurement": "binding to H2A-H2B (in words)", "setting": "full-length H2A-H2B; 25 °C, pH 7.4, 200 mM NaCl", "value": "recapitulates the full H2A-H2B binding activity of Spt16"}]}, {"substance": "full-length FACT: full-length S. cerevisiae Spt16-Pob3 heterodimer", "values": [{"measurement": "binding of full-length FACT to H2A-H2B M62E by EMSA (in words)", "setting": "H2A-H2B M62E [1]", "value": "diminished binding"}, {"measurement": "stoichiometry of binding to H2A-H2B", "setting": "full-length H2A-H2B; 25 °C, pH 7.4, 200 mM NaCl", "value": "one full-length Spt16-Pob3 heterodimer bound two H2A-H2B dimers"}, {"measurement": "discrimination between H2A.Z-H2B and H2A-H2B by EMSA (in words)", "setting": "H2A.Z-H2B", "value": "does not differentiate between H2A.Z-H2B and H2A-H2B"}, {"measurement": "binding of full-length FACT to H2A-H2B M62E by ITC (in words)", "setting": "H2A-H2B M62E [2]", "value": "severe reduction in the binding"}]}, {"substance": "Spt16^958-990: Spt16 peptide of residues 958-990 used for crystal structure and histone mutant binding (DDEASDESEEEVSEYEASEDDVSDESAFSEDEE)", "values": [{"measurement": "binding to H2A R78E histone mutant (in words)", "setting": "H2A R78E H2A-H2B^30-130", "value": "affinity was completely lost"}, {"measurement": "binding to H2A R78A histone mutant (in words)", "setting": "H2A R78A H2A-H2B^30-130", "value": "little effect on binding"}, {"measurement": "binding to H2B M62E histone mutant (in words)", "setting": "H2A-H2B^30-130 H2B M62E", "value": "reduced binding to undetectable levels"}]}, {"substance": "Pob3: Pob3 subunit of FACT", "values": [{"measurement": "Kd", "setting": "full-length H2A-H2B; read-out: dissociation constant (KD) for H2A-H2B, 25 °C, 25 mM Na-K phosphate pH 7.4, 200 mM NaCl, at least triplicate", "value": "~1", "unit": "µM"}]}, {"substance": "DESVDEDFQVSSDNDADEVAEEFDS [Pob3^505-529]", "values": [{"measurement": "reduction in binding (fold) with H2B Y45A relative to wild-type histones", "setting": "[3]", "value": 12, "unit": "fold"}, {"measurement": "reduction in binding (fold) with H2B M62A relative to wild-type histones", "setting": "[4]", "value": 9, "unit": "fold"}]}]}
